4 molecules from ChEMBL document CHEMBL1201862, “PubChem BioAssay data set” (2004) can be followed below.

Calls of active or inactive are those of the source.

The Ki is a dissociation constant, usually derived from enzyme kinetics or from competition with a known ligand. In general, AC50 refers to the concentration giving half of the maximal activity seen. A word on the EC50: it is the concentration giving half of the maximal effect. Usually IC50 stands for the concentration that gives 50% inhibition.

The target of experiment [1] is Calcium/calmodulin-dependent protein kinase type II subunit delta (Homo sapiens, UniProt Q13557). The experiment is classed as functional.
Experiment [2] has as its target MAP kinase-activated protein kinase 3 (Homo sapiens, UniProt Q16644). In kind it is functional.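 Also: value comes from a kinome-wide profiling panel in which MAPKAPK3 is one of the panel members.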
The target in experiment [3] is Serine/threonine-protein kinase MRCK alpha (Homo sapiens, UniProt Q5VT25). The experiment is classed as functional.
For experiment [4], the target named is Tyrosine-protein kinase JAK2 (Homo sapiens, UniProt O60674). The experiment is classed as functional.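 Also: JAK2 tested as one member of a kinase panel.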
Experiment [5] deals with RAC-gamma serine/threonine-protein kinase (Homo sapiens, UniProt Q9Y243). In kind it is functional.
Experiment [6] deals with Testis-specific serine/threonine-protein kinase 2 (Homo sapiens, UniProt Q96PF2). In kind it is functional.
Experiment [7] concerns the target Receptor-type tyrosine-protein kinase FLT3 (Homo sapiens, UniProt P36888). In kind it is functional.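 Also: FLT3 was tested as one member of a kinome-wide kinase panel.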
The target of experiment [8] is Serine/threonine-protein kinase PAK 4 (Homo sapiens, UniProt O96013). The experiment is classed as functional.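 Also: value obtained within a kinome profiling panel in which PAK4 was one of the panel members.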
Experiment [9] concerns the target Cyclin-dependent kinase 5 (Homo sapiens, UniProt Q00535). In kind it is functional.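 Also: CDK5 measured as one member of a kinase profiling panel.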
Experiment [10] addresses Vascular endothelial growth factor receptor 1 (Homo sapiens, UniProt P17948). In kind it is functional.
In experiment [11] the target is Dual specificity mitogen-activated protein kinase kinase 1 (Homo sapiens, UniProt Q02750). Briefly: Navigating the Kinome. Panel member name: MAP2K1. In kind it is functional.
Experiment [12] has as its target ALK tyrosine kinase receptor (Homo sapiens, UniProt Q9UM73). In kind it is functional.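 Also: ALK tested as one member of a kinase panel screen.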
In experiment [13] the target is Fibroblast growth factor receptor 3 (Homo sapiens, UniProt P22607). In kind it is functional.
The target in experiment [14] is Glycogen synthase kinase-3 alpha (Homo sapiens, UniProt P49840). In kind it is functional.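 Also: GSK3A result taken from a broad kinome-wide kinase panel.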
The target in experiment [15] is Serine/threonine-protein kinase Chk1 (Homo sapiens, UniProt O14757). In kind it is functional.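 Also: measured as one member of a kinome-wide kinase profiling panel.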
In experiment [16] the target is Protein kinase C zeta type (Homo sapiens, UniProt Q05513). In kind it is functional.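 Also: measured as one member of a broad kinase profiling panel.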
For experiment [17], the target named is Homeodomain-interacting protein kinase 4 (Homo sapiens, UniProt Q8NE63). The experiment is classed as functional.
Experiment [18] addresses Proto-oncogene tyrosine-protein kinase ROS (Homo sapiens, UniProt P08922). In kind it is functional.
Experiment [19] has as its target Fibroblast growth factor receptor 1 (Homo sapiens, UniProt P11362). In kind it is functional.
Experiment [20] concerns the target Mitogen-activated protein kinase kinase kinase kinase 4 (Homo sapiens, UniProt O95819). In kind it is functional.
Experiment [21] addresses Rho-associated protein kinase 1 (Homo sapiens, UniProt Q13464). In kind it is functional.
Experiment [22] addresses RAC-alpha serine/threonine-protein kinase (Homo sapiens, UniProt P31749). In kind it is functional.
For experiment [23], the target named is Homeodomain-interacting protein kinase 2 (Homo sapiens, UniProt Q9H2X6). The experiment is classed as functional.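 Also: measured within a kinome-wide kinase profiling panel, HIPK2 being one panel member.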
For the next experiment, the target named is Activated CDC42 kinase 1 (Homo sapiens, UniProt Q07912). Kind of experiment: Navigating the Kinome. Panel member name: ACK1. The experiment is classed as functional.
Experiment [24] concerns the target Serine/threonine-protein kinase pim-1 (Homo sapiens, UniProt P11309). In kind it is functional.
For experiment [25], the target named is Casein kinase I isoform gamma-1 (Homo sapiens, UniProt Q9HCP0). In kind it is functional.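 Also: measured as the CSNK1G1 member of a kinome profiling panel.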
A further experiment concerns A-375. Briefly: MITF: Counter assay: A375 proliferation Measured in Cell-Based System Using Plate Reader - 2084-03_Inhibitor_Dose_DryPowder_Activity. [Related pubchem assays (depositor defined):AID488944]. The experiment is classed as functional. The note with it: Homo sapiens.
Another experiment concerns the target T1, Caspase-7 (Homo sapiens, UniProt P55210).
T1 sequence (P55210 whole entry): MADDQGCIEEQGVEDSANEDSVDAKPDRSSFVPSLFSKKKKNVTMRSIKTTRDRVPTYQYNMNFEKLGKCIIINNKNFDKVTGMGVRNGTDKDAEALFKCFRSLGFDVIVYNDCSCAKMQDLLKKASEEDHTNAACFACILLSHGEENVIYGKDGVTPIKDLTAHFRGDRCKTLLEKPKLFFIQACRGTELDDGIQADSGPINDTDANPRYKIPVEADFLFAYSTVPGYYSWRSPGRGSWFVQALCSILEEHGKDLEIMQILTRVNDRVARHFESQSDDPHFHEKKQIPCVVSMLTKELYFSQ
Briefly: activation of caspase-7 zymogen – biochemical, absorbance, counter-screen for procaspase-3 activator project, dose response (AID 489013).

For experiment [26], the target named is T2, Heat shock factor protein 1 (Mus musculus, UniProt P38532).
T2 sequence (P38532 whole entry): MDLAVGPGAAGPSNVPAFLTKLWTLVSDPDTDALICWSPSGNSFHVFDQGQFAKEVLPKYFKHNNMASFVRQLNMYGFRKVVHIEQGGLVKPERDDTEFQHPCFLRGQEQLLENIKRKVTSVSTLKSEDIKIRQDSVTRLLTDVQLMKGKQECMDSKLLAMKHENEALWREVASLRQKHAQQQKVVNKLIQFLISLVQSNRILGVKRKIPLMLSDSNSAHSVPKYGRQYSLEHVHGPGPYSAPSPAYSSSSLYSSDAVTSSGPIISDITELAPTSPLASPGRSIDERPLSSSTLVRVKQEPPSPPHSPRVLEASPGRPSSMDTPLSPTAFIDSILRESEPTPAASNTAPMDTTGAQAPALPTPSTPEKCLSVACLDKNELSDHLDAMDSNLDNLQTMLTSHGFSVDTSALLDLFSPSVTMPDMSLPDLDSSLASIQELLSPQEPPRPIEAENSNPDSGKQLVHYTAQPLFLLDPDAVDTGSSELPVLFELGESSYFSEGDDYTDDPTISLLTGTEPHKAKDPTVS
Briefly: decrease of HSF1-responsive luciferase luminescence – cell-based, NIH3T3, dose retest, confirmation (AID 2382).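 Also: NIH3T3 fibroblasts with HSF1-driven luciferase reporter stressed by proteasome inhibitor MG132; luminescence from HSF1-driven luciferase expression after 8 hours of MG132 stress.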 In kind it is functional.

The target of experiment [27] is Serine/threonine-protein phosphatase PP1-alpha catalytic subunit (Homo sapiens, UniProt P62136). Kind of experiment: inhibition of protein phosphatase 1 activity – biochemical, fluorescence, dose response (AID 2394).
Serine/threonine-protein phosphatase PP1-alpha catalytic subunit, sequence (P62136 whole entry): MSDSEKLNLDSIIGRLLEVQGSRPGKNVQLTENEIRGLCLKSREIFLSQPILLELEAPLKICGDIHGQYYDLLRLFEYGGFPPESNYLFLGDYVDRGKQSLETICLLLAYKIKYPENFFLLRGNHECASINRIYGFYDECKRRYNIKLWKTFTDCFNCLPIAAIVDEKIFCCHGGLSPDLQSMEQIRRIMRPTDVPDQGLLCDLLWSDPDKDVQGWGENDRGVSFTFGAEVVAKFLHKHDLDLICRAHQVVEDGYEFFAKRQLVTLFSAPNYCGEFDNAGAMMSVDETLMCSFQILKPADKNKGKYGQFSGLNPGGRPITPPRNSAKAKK

MAP kinase-activated protein kinase 3, sequence (Q16644 whole entry): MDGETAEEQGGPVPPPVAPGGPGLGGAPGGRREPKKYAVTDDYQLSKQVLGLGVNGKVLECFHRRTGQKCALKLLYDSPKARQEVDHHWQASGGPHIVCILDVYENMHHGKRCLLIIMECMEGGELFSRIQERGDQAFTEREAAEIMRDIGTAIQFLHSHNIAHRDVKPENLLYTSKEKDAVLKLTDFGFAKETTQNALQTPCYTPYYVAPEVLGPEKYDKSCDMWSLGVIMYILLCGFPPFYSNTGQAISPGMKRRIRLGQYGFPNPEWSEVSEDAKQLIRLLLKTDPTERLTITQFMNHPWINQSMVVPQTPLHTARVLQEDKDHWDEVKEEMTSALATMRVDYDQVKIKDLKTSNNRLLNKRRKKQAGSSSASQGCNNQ
Protein kinase C zeta type, sequence (Q05513 whole entry): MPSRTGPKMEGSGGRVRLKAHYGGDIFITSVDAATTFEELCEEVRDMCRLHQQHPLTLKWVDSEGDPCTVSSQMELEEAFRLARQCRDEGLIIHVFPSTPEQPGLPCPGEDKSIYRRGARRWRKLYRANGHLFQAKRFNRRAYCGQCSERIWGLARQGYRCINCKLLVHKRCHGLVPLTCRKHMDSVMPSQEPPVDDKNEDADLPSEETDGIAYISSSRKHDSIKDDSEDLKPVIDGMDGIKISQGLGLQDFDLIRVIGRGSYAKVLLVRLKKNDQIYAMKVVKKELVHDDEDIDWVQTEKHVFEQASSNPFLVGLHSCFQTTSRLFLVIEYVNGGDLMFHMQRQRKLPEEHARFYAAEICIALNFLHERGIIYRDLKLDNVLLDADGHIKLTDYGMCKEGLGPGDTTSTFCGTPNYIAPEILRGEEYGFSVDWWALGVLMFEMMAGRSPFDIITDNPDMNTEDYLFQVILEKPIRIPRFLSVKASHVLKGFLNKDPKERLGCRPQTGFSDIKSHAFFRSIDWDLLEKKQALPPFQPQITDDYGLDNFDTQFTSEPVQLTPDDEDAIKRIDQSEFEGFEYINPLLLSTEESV
Homeodomain-interacting protein kinase 4, sequence (Q8NE63 whole entry): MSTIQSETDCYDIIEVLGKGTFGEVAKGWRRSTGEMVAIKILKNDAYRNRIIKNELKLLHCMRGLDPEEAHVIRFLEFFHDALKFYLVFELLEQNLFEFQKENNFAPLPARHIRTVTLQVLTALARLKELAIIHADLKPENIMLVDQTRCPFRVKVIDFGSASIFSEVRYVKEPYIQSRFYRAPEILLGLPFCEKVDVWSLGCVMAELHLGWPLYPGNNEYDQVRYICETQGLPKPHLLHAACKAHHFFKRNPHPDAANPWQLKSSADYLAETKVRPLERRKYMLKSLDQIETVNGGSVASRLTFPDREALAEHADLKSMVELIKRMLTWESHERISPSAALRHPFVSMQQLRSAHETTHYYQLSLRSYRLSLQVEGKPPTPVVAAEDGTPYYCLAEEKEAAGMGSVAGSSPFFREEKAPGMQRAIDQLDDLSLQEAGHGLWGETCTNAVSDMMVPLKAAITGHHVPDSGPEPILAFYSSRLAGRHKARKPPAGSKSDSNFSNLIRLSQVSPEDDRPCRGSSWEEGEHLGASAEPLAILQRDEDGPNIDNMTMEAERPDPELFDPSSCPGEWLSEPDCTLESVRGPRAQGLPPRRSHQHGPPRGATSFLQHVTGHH
Mitogen-activated protein kinase kinase kinase kinase 4, sequence (O95819 whole entry): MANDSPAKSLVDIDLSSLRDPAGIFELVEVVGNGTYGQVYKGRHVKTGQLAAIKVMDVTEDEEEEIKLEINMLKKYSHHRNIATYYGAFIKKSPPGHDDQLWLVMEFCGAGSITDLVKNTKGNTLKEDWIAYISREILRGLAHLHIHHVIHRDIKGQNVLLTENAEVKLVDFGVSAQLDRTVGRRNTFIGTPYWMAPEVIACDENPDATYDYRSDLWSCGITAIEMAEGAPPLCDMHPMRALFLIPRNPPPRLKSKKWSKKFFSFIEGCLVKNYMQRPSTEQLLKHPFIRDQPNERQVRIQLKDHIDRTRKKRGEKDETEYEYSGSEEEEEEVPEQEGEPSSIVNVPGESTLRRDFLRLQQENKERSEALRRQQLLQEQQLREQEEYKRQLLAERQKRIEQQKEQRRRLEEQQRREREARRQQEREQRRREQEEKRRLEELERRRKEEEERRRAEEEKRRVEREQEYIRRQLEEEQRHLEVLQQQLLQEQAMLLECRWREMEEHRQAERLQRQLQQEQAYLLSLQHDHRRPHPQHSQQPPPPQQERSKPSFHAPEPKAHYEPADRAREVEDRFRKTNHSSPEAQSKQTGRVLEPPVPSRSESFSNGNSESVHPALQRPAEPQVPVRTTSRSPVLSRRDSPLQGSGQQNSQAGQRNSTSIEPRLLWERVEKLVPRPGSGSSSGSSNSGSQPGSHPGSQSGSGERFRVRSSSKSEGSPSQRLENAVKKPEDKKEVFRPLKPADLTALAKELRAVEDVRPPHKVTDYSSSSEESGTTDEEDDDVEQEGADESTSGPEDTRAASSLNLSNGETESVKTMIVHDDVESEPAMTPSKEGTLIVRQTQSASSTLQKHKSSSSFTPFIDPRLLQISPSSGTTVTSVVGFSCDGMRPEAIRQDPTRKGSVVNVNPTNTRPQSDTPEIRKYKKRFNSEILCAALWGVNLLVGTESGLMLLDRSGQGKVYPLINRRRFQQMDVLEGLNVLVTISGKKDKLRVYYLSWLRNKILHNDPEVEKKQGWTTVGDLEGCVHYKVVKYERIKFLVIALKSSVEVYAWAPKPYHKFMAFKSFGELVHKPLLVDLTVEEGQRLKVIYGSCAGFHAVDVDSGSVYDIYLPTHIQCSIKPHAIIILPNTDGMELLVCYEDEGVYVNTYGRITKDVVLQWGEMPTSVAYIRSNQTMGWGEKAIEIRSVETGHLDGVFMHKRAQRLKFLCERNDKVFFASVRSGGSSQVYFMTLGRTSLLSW
Receptor-type tyrosine-protein kinase FLT3, sequence (P36888 whole entry): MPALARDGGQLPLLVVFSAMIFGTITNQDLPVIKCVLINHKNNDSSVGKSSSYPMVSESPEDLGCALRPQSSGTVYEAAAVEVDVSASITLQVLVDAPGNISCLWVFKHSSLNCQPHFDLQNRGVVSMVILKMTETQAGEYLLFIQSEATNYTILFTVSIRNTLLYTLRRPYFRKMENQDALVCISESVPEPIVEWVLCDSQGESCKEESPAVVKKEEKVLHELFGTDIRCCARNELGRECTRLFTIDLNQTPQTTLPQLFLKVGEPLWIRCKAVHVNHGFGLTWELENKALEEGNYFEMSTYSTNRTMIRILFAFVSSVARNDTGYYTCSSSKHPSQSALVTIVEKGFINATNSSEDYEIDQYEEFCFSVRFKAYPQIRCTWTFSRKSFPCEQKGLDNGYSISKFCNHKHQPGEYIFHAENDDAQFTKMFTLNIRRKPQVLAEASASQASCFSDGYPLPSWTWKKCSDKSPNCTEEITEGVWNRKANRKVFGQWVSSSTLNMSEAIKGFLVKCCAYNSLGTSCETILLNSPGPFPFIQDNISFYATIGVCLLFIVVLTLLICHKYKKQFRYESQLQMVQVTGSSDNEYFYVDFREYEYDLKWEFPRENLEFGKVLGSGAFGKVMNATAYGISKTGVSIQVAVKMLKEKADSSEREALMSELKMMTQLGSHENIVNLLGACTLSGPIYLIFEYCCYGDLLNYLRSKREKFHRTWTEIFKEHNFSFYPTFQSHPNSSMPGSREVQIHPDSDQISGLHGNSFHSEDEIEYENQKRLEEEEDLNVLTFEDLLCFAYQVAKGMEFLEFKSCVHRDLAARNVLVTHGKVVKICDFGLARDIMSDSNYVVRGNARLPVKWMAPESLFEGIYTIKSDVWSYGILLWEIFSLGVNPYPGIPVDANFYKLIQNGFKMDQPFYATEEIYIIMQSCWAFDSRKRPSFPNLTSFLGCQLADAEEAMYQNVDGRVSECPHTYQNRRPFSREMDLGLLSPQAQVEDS
Testis-specific serine/threonine-protein kinase 2, sequence (Q96PF2 whole entry): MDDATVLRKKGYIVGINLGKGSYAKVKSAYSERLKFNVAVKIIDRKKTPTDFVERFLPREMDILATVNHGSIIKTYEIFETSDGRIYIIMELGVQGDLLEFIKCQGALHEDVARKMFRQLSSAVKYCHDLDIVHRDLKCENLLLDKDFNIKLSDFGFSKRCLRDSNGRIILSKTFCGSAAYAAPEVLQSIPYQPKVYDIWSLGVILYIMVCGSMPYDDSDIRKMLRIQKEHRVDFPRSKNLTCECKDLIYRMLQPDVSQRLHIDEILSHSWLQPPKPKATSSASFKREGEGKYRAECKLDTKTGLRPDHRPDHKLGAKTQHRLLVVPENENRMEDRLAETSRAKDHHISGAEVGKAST
Serine/threonine-protein kinase Chk1, sequence (O14757 whole entry): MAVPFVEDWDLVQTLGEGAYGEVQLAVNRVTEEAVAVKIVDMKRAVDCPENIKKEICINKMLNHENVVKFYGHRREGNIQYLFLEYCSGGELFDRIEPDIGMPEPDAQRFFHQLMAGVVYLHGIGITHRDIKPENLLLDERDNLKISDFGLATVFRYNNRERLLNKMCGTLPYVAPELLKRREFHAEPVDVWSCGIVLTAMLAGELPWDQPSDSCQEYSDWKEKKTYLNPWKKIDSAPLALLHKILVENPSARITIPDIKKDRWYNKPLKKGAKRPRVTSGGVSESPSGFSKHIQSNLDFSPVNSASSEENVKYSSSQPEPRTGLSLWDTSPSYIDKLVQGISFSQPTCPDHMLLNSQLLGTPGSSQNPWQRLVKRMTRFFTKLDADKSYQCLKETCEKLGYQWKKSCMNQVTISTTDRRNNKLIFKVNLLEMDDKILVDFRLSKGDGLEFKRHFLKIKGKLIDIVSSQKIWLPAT

With `Clc1cc(-c2c[nH]c3ncccc23)nc(NC2CCCCC2)n1`, the Ki in experiment [1] is > 1.26 µM (inactive); in [2], > 10 µM (inactive); in experiment [3], 126 nM (active); in experiment [4] it was > 2.51 µM (inactive); in experiment [5] it was > 10 µM (inactive); in experiment [6], > 1.58 µM (inactive). Further, the Ki in experiment [7] was > 1 µM (inactive); in [8] it was > 2 µM (inactive); in experiment [9] it was 126 nM (active); in [10] it was 398 nM (active); in [11], 200 nM (active); in experiment [12] it was > 3.98 µM (inactive). The Ki was > 2 µM (inactive) in experiment [13]; 794 nM (active) in experiment [14]; 3.98 µM (active) in [15]; > 7.94 µM (inactive) in experiment [16]; 1.26 µM (active) in experiment [17]; > 2 µM (inactive) in experiment [18]. Besides, the Ki in [19] was > 3.98 µM (inactive); in experiment [20] it was 126 nM (active); in [21], 15.8 nM (active); in [22], > 7.94 µM (inactive); in [23] it was 100 nM (active); on Activated CDC42 kinase 1, > 3.98 µM (inactive). The Ki in experiment [24] was > 5.01 µM (inactive); in experiment [25], 126 nM (active).
On to `CCC(=O)NC(c1ccccc1OC)c1ccc2cccnc2c1O` (stereo not given), for which, in the experiment with A-375, the AC50 is 35 µM (active).
For `O=C(N/N=C/c1ccc(O)cc1O)c1ccc(CN2C(=O)c3cccc4cccc2c34)cc1`, the EC50 at Caspase-7 is > 85.3 µM (inactive).
In the case of `NS(=O)(=O)c1ccc(NC2=CC(=O)C(=O)c3ccccc32)cc1`, the EC50 in experiment [26] is recorded as > 195 µM (not active). Moreover, the IC50 in experiment [27] is 38.9 µM (not active).
